Reference: patent US8518980B2, “Treatment of Duchenne muscular dystrophy” (Summit Corporation PLC, priority 2006, dated 2013)

System: Utrophin A promoter linked to a luciferase reporter gene (H2K/mdx/Utro A reporter cell line)
Assay: Luciferase reporter assay (murine H2K cells)
Details: Mus musculus, H2K mdx

Nc1cc(-c2nc3ccccc3[nH]2)ccc1Cl [Example 653, 5-(1H-benzo[d]imidazol-2-yl)-2-chloroaniline]
activity at 10 µM: 301 to 400%

Cc1ccc2nc(-c3ccc(NC(=O)CSc4nnc[nH]4)cc3)sc2c1 [Example 654, 2-(4H-1,2,4-triazol-3-ylthio)-N-(4-(6-methylbenzo[d]thiazol-2-yl)phenyl)acetamide]
activity at 10 µM: 301 to 400%

CC(=O)Oc1ccc(C(=O)Nc2ccc(-c3nc4ccccc4[nH]3)cc2)cc1 [Example 655, 4-(4-(1H-benzo[d]imidazol-2-yl)phenylcarbamoyl)phenyl acetate]
activity at 10 µM: 301 to 400%

Cc1cc2oc(C(=O)NCc3ccncc3)c(C)c2cc1C [Example 656, 3,5,6-trimethyl-N-(pyridin-4-ylmethyl)benzofuran-2-carboxamide]
activity at 10 µM: 301 to 400%

CCOCC(=O)Nc1ccc(-c2nc3ccc(C)cc3s2)cc1 [Example 657, 2-ethoxy-N-(4-(6-methylbenzo[d]thiazol-2-yl)phenyl)acetamide]
activity at 10 µM: 301 to 400%

O=C(Nc1nc2ccc(F)cc2s1)c1cccs1 [Example 658, N-(6-fluorobenzo[d]thiazol-2-yl)thiophene-2-carboxamide]
activity at 10 µM: 301 to 400%

Cc1nn(-c2nc3ccccc3[nH]2)c(N)c1-c1ccccc1 [Example 659, 1-(1H-benzo[d]imidazol-2-yl)-3-methyl-4-phenyl-1H-pyrazol-5-amine]
activity at 10 µM: 301 to 400%

CCOCCC(=O)Nc1ccc(-c2nc3ccc(C)cc3s2)cc1 [Example 660, 3-ethoxy-N-(4-(6-methylbenzo[d]thiazol-2-yl)phenyl)propanamide]
activity at 10 µM: 301 to 400%

O=C(Nc1ccc(-c2nc3ccccc3s2)cc1)C1CC1 [Example 661, N-(4-(benzo[d]thiazol-2-yl)phenyl)cyclopropanecarboxamide]
activity at 10 µM: 301 to 400%

CC(=O)Nc1ccc(-c2nc3cc(C)ccc3o2)cc1 [Example 662, N-(4-(5-methylbenzo[d]oxazol-2-yl)phenyl)acetamide]
activity at 10 µM: 301 to 400%

Cc1ccc(NC(=O)C(=O)c2c[nH]c3ccccc23)c(Br)c1 [Example 663, N-(2-bromo-4-methylphenyl)-2-(1H-indol-3-yl)-2-oxoacetamide]
activity at 10 µM: 301 to 400%

Cc1ccc2nc(-c3ccc(N)cc3)sc2c1 [Example 664, 4-(6-methylbenzo[d]thiazol-2-yl)aniline]
activity at 10 µM: 201 to 300%

O=C(NCCc1ccccc1)c1cc2ccccc2o1 [Example 665, N-phenethylbenzofuran-2-carboxamide]
activity at 10 µM: 201 to 300%

Cn1c(CNc2ccc(Cl)cc2)nc2ccccc21 [Example 666, 4-chloro-N-((1-methyl-1H-benzo[d]imidazol-2-yl)methyl)aniline]
activity at 10 µM: 201 to 300%

CCC(=O)Nc1ccc(-c2nc3ccccc3s2)cc1 [Example 667, N-(4-(benzo[d]thiazol-2-yl)phenyl)propionamide]
activity at 10 µM: 201 to 300%

CCC(=O)Nc1ccc2oc(-c3cccc(C)c3)nc2c1 [Example 668, N-(2-m-tolylbenzo[d]oxazol-5-yl)propionamide]
activity at 10 µM: 201 to 300%

Cn1c(NC(=N)c2ccccc2)nc2ccccc21 [Example 669, N-(1-methyl-1H-benzo[d]imidazol-2-yl)benzimidamide]
activity at 10 µM: 201 to 300%

O=C(Nc1nc2ccccc2s1)c1cc(Br)ccc1Cl [Example 671, N-(benzo[d]thiazol-2-yl)-5-bromo-2-chlorobenzamide]
activity at 10 µM: 201 to 300%

Cc1ccc2nc(-c3ccc(NC(=O)c4cccs4)cc3)oc2c1 [Example 672, N-(4-(6-methylbenzo[d]oxazol-2-yl)phenyl)thiophene-2-carboxamide]
activity at 10 µM: 201 to 300%

Nc1c(C(=O)Nc2ccccc2F)sc2nc3c(cc12)CCC3 [Example 673, 3-amino-N-(2-fluorophenyl)-6,7-dihydro-5H-cyclopenta[e]thieno[2,3-b]pyridine-2-carboxamide]
activity at 10 µM: 201 to 300%

OCc1cn(-c2ccccc2)nc1-c1cc2ccccc2o1 [Example 674, (3-(benzofuran-2-yl)-1-phenyl-1H-pyrazol-4-yl)methanol]
activity at 10 µM: 201 to 300%

COc1ccc(-c2nc3cc(C)ccc3o2)cc1 [Example 675, 2-(4-methoxyphenyl)-5-methylbenzo[d]oxazole]
activity at 10 µM: 201 to 300%

CCOc1ccc(NCc2nc3ccccc3n2C)cc1 [Example 676, 4-ethoxy-N-((1-methyl-1H-benzo[d]imidazol-2-yl)methyl)aniline]
activity at 10 µM: 201 to 300%

Cc1ccc2oc(-c3ccc(Cl)c(NC(=O)c4ccco4)c3)nc2c1 [Example 677, N-(2-chloro-5-(5-methylbenzo[d]oxazol-2-yl)phenyl)furan-2-carboxamide]
activity at 10 µM: 201 to 300%

Cc1nc(Nc2nc3ccccc3o2)nc2c1CCC2 [Example 678, N-(4-methyl-6,7-dihydro-5H-cyclopenta[d]pyrimidin-2-yl)benzo[d]oxazol-2-amine]
activity at 10 µM: 201 to 300%

O=C(Nc1nc2ccccc2[nH]1)c1cccc(Cl)c1 [Example 679, N-(1H-benzo[d]imidazol-2-yl)-3-chlorobenzamide]
activity at 10 µM: 201 to 300%

O=C(Nc1ccc(-c2nc3ccccc3s2)cc1)C1CCCO1 (stereo not drawn) [Example 680, N-(4-(benzo[d]thiazol-2-yl)phenyl)tetrahydrofuran-2-carboxamide]
activity at 10 µM: 201 to 300%

CC(=O)c1c(C)nc(Nc2nc3ccccc3o2)nc1C [Example 681, 1-(2-(benzo[d]oxazol-2-ylamino)-4,6-dimethylpyrimidin-5-yl)ethanone]
activity at 10 µM: 201 to 300%

Cc1ccnc(Nc2nc3ccccc3o2)n1 [Example 682, N-(4-methylpyrimidin-2-yl)benzo[d]oxazol-2-amine]
activity at 10 µM: 201 to 300%

CN(C)S(=O)(=O)c1ccc2nc(NC(=O)c3cccs3)sc2c1 [Example 683, N-(6-(N,N-dimethylsulfamoyl)benzo[d]thiazol-2-yl)thiophene-2-carboxamide]
activity at 10 µM: 201 to 300%

Cc1ccc2oc(-c3cc(NC(=O)c4cncc(Br)c4)ccc3O)nc2c1 [Example 684, 5-bromo-N-(4-hydroxy-3-(5-methylbenzo[d]oxazol-2-yl)phenyl)nicotinamide]
activity at 10 µM: 201 to 300%

O=C(CSc1nc[nH]n1)Nc1ccc(-c2nc3ccccc3s2)cc1 [Example 685, 2-(1H-1,2,4-triazol-3-ylthio)-N-(4-(benzo[d]thiazol-2-yl)phenyl)acetamide]
activity at 10 µM: 201 to 300%

COc1ccc2oc(-c3ccc(C)c(N)c3)nc2c1 [Example 686, 5-(5-methoxybenzo[d]oxazol-2-yl)-2-methylaniline]
activity at 10 µM: 201 to 300%

CNS(=O)(=O)c1ccc2nc(NC(=O)c3cccs3)sc2c1 [Example 687, N-(6-(N-methylsulfamoyl)benzo[d]thiazol-2-yl)thiophene-2-carboxamide]
activity at 10 µM: 201 to 300%

Cc1ccc2sc(-c3ccc(NC(=O)c4cc(-n5cnnc5)ccc4Cl)cc3)nc2c1 [Example 688, 2-chloro-N-(4-(5-methylbenzo[d]thiazol-2-yl)phenyl)-5-(4H-1,2,4-triazol-4-yl)benzamide]
activity at 10 µM: 201 to 300%

O=C(Nc1ccccc1F)C(=O)c1c[nH]c2ccccc12 [Example 689, N-(2-fluorophenyl)-2-(1H-indol-3-yl)-2-oxoacetamide]
activity at 10 µM: 201 to 300%
